Measurements taken from patent US8691761B2, “Somatostatin receptor 2 antagonists” (priority 2006, dated 2014).
Where two headings read alike, the source gives them in different places. Bridge positions count the residues as written; N and C are the ends. Square brackets hold non-standard residues; d marks the D form. Peptide text beside a SMILES is read from it. * marks the point of attachment. ξ: configuration not given here. Phe(4-NO2) = N[C@@H](Cc1ccc([N+](=O)[O-])cc1)C(=O)O; dPhe(4-NHCONH2) = NC(=O)Nc1ccc(C[C@@H](N)C(=O)O)cc1; Phe(4-NHCONH2) = NC(=O)Nc1ccc(C[C@H](N)C(=O)O)cc1; Trp(5-F) = N[C@@H](Cc1c[nH]c2ccc(F)cc12)C(=O)O; Phe(4-Cl) = N[C@@H](Cc1ccc(Cl)cc1)C(=O)O; ξDihydroorotoyl = O=C1CC(C(=O)*)NC(=O)N1; Phe(4-NH2) = Nc1ccc(C[C@H](N)C(=O)O)cc1; X1 = NC(=O)N[C@@H](Cc1ccc(Cl)cc1)C(=O)*; 2Nal = N[C@@H](Cc1ccc2ccccc2c1)C(=O)O

Columns and labels:
hSSTR3 = target: T1, hSSTR3 (Homo sapiens, UniProt P32745); experiment: Receptor autoradiography, displacement of 125I-[Leu8,D-Trp22,Tyr25]-SRIF-28 from membrane pellet sections; format: binding; settings: Table 3; mean ± SEM when N ≧ 3; read-out: sst3 binding affinity (IC50)
T1 construct: expressed in transfected cells; host or cells: CHO-K1 or CCL39 cells
T1 sequence (P32745 whole entry): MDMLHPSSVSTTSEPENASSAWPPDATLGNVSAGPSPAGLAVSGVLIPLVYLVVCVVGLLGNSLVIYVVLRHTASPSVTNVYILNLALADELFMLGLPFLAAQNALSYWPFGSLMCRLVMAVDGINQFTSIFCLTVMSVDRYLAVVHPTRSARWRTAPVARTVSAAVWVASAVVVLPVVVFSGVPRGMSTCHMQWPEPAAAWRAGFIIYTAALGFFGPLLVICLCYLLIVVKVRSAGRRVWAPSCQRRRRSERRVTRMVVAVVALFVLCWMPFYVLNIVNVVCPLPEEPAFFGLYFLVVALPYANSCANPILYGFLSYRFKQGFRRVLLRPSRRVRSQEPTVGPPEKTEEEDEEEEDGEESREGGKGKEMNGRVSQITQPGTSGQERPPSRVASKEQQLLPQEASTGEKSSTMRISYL
Description: (§1) Generally, recombinant cells expressing the receptor are washed and homogenized to prepare a crude protein homogenate in a suitable buffer. In a typical assay, an amount of protein from the cell homogenate is placed into a small volume of an appropriate assay buffer at an appropriate pH. Candidate substances, such as potential SRIF agonists and antagonists, are added to the admixture in convenient concentrations, and the interaction between the candidate substance and the receptor polypeptide is monitored.
(§2) In vitro Bioassay: The effects of the various somatostatin analogs were tested in vitro for their ability to bind to isolated cloned receptors expressed on CHO-K1 cells and CCL39 cells. The molecular cloning of the genes encoding multiple somatostatin receptor subtypes permitted the individual expression of these receptors in mammalian cells and the characterization of their respective pharmacological profiles.
(§3) CHO-K1 cells were grown in Ham's F-12 medium, and CCL39 cells were grown in Dulbecco's modified Eagle's medium/Ham's F-12(1:1) mix, supplemented with 10% fetal bovine serum, 100 U/ml penicillin and 100 μg/ml streptomycin, in humidified air containing 5% CO2 at 37° C. Cells were washed twice with and scraped into ice-cold 0.05 M Tris-HCl (pH 7.4), collected by centrifugation, and homogenized using a rotor/stator/system in the same buffer. After centrifugation at 120 g for 5 min at 4° C., the supernatant was collected and centrifuged again at 48,000 g for 30 min at 4° C. The resulting pellet was resuspended in ice-cold Tris buffer, transferred into a microfuge tube, and centrifuged at 20,000 g for 15 min at 4° C. After withdrawal of the supernatant, the membrane pellet was stored at −80° C.
(§4) Receptor autoradiography was performed on 20 μm thick cryostat sections of the membrane pellets, mounted on microscope slides, and then stored at −20° C. […] Increasing concentrations of the unlabeled peptide were used ranging from 0.1-1000 nM. […] IC50 values were calculated after quantification of the data using a computer-assisted image processing system as known in this art.
(§5) The numbers in parentheses indicate the number of times the particular binding test was carried out.
(§6) Receptor autoradiography. Cell membrane pellets were prepared as previously described, and stored at −80° C. Receptor autoradiography was performed on 20-μm thick cryostat (Microm HM 500, Walldorf, Germany) sections of the membrane pellets, mounted on microscope slides, and then stored at −20° C. […] After a brief dip in distilled water to remove excess salts, the sections were dried quickly and exposed for 1 week to Kodak BioMax MR film. IC50 values were calculated after quantification of the data using a computer-assisted image processing system as described previously. […] (Reubi, J. C. “In vitro identification of vasoactive intestinal peptide receptors in human tumors: Implications for tumor imaging.” J. Nucl. Med. 1995, 36, 1846-1853).
(§7) To investigate their ssts binding properties, the peptides were tested for their ability to bind to cryostat sections from membrane pellets of cells expressing the five human ssts (Table 3).

hSSTR4 = target: T2, hSSTR4 (Homo sapiens, UniProt P31391); experiment: as above; format: binding
T2 construct: expressed in transfected cells; host or cells: CHO-K1 or CCL39 cells
T2 sequence (P31391 whole entry): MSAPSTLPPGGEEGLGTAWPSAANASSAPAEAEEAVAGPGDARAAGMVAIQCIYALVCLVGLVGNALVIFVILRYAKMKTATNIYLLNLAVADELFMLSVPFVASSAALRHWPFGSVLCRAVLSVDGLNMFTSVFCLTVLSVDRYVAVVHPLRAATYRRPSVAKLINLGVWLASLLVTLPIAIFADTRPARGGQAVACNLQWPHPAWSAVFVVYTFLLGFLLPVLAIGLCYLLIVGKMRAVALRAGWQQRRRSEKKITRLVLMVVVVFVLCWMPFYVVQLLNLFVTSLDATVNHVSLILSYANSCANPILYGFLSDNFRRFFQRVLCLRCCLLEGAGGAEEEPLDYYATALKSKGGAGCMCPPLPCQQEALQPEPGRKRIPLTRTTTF
Description: as §1, §2, §3, §4, §5, §6, §7

hSSTR1 = target: T3, hSSTR1 (Homo sapiens, UniProt P30872); experiment: as above; format: binding; settings: Table 3; mean ± SEM when N ≧ 3; read-out: sst1 binding affinity (IC50)
T3 construct: expressed in transfected cells; host or cells: CHO-K1 or CCL39 cells
T3 sequence (P30872 whole entry): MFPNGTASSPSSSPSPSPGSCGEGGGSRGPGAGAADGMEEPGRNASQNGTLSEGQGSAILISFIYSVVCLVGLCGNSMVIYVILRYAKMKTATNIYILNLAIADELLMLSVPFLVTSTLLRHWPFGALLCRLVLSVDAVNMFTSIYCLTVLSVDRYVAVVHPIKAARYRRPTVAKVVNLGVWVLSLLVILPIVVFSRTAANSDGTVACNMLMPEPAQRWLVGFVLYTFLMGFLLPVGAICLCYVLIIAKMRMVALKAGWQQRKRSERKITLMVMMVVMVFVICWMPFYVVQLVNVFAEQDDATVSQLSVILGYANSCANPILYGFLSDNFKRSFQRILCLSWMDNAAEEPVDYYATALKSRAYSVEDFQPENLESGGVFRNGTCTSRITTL
Description: as §1, §2, §3, §4, §5, §6, §7

hSSTR5 = target: T4, hSSTR5 (Homo sapiens, UniProt P35346); experiment: as above; format: binding; settings: Table 3; mean ± SEM when N ≧ 3; read-out: sst5 binding affinity (IC50)
T4 construct: expressed in transfected cells; host or cells: CHO-K1 or CCL39 cells
T4 sequence (P35346 whole entry): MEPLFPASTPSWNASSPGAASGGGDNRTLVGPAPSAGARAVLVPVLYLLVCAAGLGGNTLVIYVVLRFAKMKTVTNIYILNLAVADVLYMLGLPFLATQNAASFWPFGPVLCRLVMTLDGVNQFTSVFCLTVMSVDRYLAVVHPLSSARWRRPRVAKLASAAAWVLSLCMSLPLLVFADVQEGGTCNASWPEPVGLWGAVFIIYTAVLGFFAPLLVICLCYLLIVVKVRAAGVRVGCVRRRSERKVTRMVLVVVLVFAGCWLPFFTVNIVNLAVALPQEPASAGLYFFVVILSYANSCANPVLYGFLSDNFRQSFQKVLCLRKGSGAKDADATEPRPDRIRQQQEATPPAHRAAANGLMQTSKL
Description: as §1, §2, §3, §4, §5, §6, §7

hSSTR2 = target: T5, hSSTR2 (Homo sapiens, UniProt P30874); experiment: as above; format: binding; settings: for IC50: Table 3, mean ± SEM when N ≧ 3
T5 construct: expressed in transfected cells; host or cells: CHO-K1 or CCL39 cells
T5 sequence (P30874 whole entry): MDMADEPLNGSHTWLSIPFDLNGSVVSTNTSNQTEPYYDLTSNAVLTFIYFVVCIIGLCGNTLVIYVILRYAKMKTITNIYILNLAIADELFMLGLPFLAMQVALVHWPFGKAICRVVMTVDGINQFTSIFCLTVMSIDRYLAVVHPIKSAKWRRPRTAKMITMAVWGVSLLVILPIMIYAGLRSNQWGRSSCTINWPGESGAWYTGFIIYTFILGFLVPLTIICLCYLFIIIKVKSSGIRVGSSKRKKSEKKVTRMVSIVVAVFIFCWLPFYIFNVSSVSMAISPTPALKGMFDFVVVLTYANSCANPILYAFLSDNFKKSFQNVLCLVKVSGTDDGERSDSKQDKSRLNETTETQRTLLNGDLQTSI
Description: as §1, §2, §3, §4, §5, §6, §7

human sst2A receptor = target: T6, human sst2A receptor (Homo sapiens, UniProt P30874); experiment: Immunofluorescence-based sst2 internalization assay in HEK-sst2 cells; format: cell-based; settings: n ≧ 2
T6 construct: expressed in transfected cells; host or cells: HEK293 (HEK-sst2)
T6 sequence (P30874 whole entry): as above
Description: Immunofluorescence-based sst2 Internalization Assay. Immunofluorescence microscopy-based internalization assay for sst2 was performed with HEK-sst2 using the sst2-specific antibody R2-88 as described elsewhere herein. HEK-sst2 cells were treated either with vehicle alone, the sst2 agonist [Tyr^3]-octreotide at a concentration of 100 nM, [Tyr^3]-octreotide at a concentration of 100 nM in the presence of an excess of the SRIF analogues to be tested (100 times the concentration of [Tyr^3]-octreotide), or with the SRIF analogues to be tested alone at a concentration of 10 μM, and then processed for immunofluorescence microscopy as described previously.

[1] = Table 3, mean ± SEM when N ≧ 3, read-out: sst4 binding affinity (IC50)
[2] = read-out: sst2 binding affinity (IC50)

Compound	IC50 (hSSTR3) [nM]	IC50 (hSSTR1) [nM]	IC50 (hSSTR5) [nM]	IC50 (hSSTR4; [1]) [nM]	IC50 (hSSTR2; [2]) [nM]	sst2-internalization tested in vitro in HEK-sst2 cells (function) (human sst2A receptor)	loss of binding affinity for sst2 as compared to 7 (hSSTR2) [fold]	IC50 (hSSTR4) [nM]	IC50 (hSSTR2; sst2 binding affinity (IC50)) [nM]
C[C@@H](O)[C@@H]1NC(=O)[C@H](CCCCN)NC(=O)[C@@H](Cc2c[nH]c3ccccc23)NC(=O)[C@@H](N(C)C(=O)c2ccccc2)NC(=O)[C@H](NC(=O)[C@@H](N)Cc2ccc(Cl)cc2)CSSC[C@@H](C(=O)N[C@@H](Cc2ccc3ccccc3c2)C(N)=O)NC1=O [compound 10, H2N-Cpa-c[DCys-D-Agl(NMe.benzoyl)-DTrp-Lys-Thr-Cys]-2Nal-NH2]	102 ± 10	> 1000	728 ± 272					116 ± 47	158 ± 37
C[C@@H](O)[C@@H]1NC(=O)[C@H](CCCCN)NC(=O)[C@@H](Cc2ccc(NC(N)=O)cc2)NC(=O)[C@H](Cc2ccc(NC(=O)C3CC(=O)NC(=O)N3)cc2)NC(=O)[C@H](NC(=O)[C@@H](N)Cc2ccc([N+](=O)[O-])cc2)CSSC[C@@H](C(=O)N[C@@H](Cc2ccc3ccccc3c2)C(N)=O)NC1=O (stereo partly drawn) [compound 6, H2N-pNO2Phe-c[DCys-Aph(Hor)-DAph(Cbm)-Lys-Thr-Cys]-2Nal-NH2] (H-[Phe(4-NO2)][dC][Phe(4-NH2)](ξDihydroorotoyl)[dPhe(4-NHCONH2)]KTC[2Nal]-NH2; disulfide 2-7)		> 1000	> 1000	> 1000					
CC(C)C[C@@H]1NC(=O)[C@H](NC(=O)[C@@H](N)Cc2ccc(Cl)cc2)CSSC[C@@H](C(=O)N[C@@H](Cc2ccc3ccccc3c2)C(N)=O)NC(=O)[C@H]([C@@H](C)O)NC(=O)[C@H](CCCCN)NC(=O)[C@@H](Cc2c[nH]c3ccccc23)NC1=O [compound 11, H2N-Cpa-c[DCys-Leu-DTrp-Lys-Thr-Cys]-2Nal-NH2] (H-[Phe(4-Cl)][dC]L[dW]KTC[2Nal]-NH2; disulfide 2-7)	340 ± 77	> 1000	657 ± 299	908 ± 138	58 ± 21		10		

Now from value to molecule, other results behind:

IC50 (hSSTR3) [nM]	IC50 (hSSTR1) [nM]	IC50 (hSSTR5) [nM]	IC50 (hSSTR4; [1]) [nM]	IC50 (hSSTR2; [2]) [nM]	sst2-internalization tested in vitro in HEK-sst2 cells (function) (human sst2A receptor)	loss of binding affinity for sst2 as compared to 7 (hSSTR2) [fold]	Compound	IC50 (hSSTR4) [nM]	IC50 (hSSTR2; sst2 binding affinity (IC50)) [nM]
54 ± 15	> 1000	111 ± 17	136 ± 7.5	23 ± 4.3			C[C@@H](O)[C@@H]1NC(=O)[C@H](CCCCN)NC(=O)[C@@H](Cc2c[nH]c3ccccc23)NC(=O)[C@H](Cc2ccc(NC(N)=O)cc2)NC(=O)[C@H](NC(=O)[C@H](Cc2ccc(Cl)cc2)NC(N)=O)CSSC[C@@H](C(=O)N[C@@H](Cc2ccc3ccccc3c2)C(N)=O)NC1=O [compound 13, Cbm-Cpa-c[DCys-Aph(Cbm)-DTrp-Lys-Thr-Cys]-2Nal-NH2] (X1-[dC][Phe(4-NHCONH2)][dW]KTC[2Nal]-NH2; disulfide 1-6)		
90 ± 11	> 1000	618 ± 248	905 ± 132	23 ± 3.7			C[C@@H](O)[C@@H]1NC(=O)[C@H](CCCCN)NC(=O)[C@H](Cc2c[nH]c3ccc(F)cc23)NC(=O)[C@H](Cc2ccc(NC(N)=O)cc2)NC(=O)[C@H](NC(=O)[C@@H](N)Cc2ccc(Cl)cc2)CSSC[C@@H](C(=O)N[C@@H](Cc2ccc3ccccc3c2)C(N)=O)NC1=O [compound 26, H2N-Cpa-c[DCys-Aph(Cbm)-5F-Trp-Lys-Thr-Cys]-2Nal-NH2] (H-[Phe(4-Cl)][dC][Phe(4-NHCONH2)][Trp(5-F)]KTC[2Nal]-NH2; disulfide 2-7)		
					Antagonist		C[C@@H](O)[C@@H]1NC(=O)[C@H](CCCCN)NC(=O)[C@@H](Cc2c[nH]c3ccccc23)NC(=O)[C@H](Cc2ccc(NC(N)=O)cc2)NC(=O)[C@H](NC(=O)[C@H](Cc2ccc(Cl)cc2)NC(=O)CCOCCOCCOCCNC(=O)CN2CCN(CC(=O)O)CCN(CC(=O)O)CCN(CC(=O)O)CC2)CSSC[C@@H](C(=O)N[C@@H](Cc2ccc3ccccc3c2)C(N)=O)NC1=O [compound 16, DOTA-Peg-Cpa-c[DCys-Aph(Cbm)-DTrp-Lys-Thr-Cys]-2Nal-NH2]		
